Measurements: EP4382907A1, “METHOD FOR PREDICTING A PATIENT-SPECIFIC RESPONSE TO THE FLOT CHEMOTHERAPY SCHEME” (Technische Universität Dresden, priority 2022, dated 2024)
“Also recorded” adds a separate entry of the source. Read-outs that look alike come from different tables or passages of the source.

Test system: Zellen eines ösophago-gastralen Karzinoms oder eines Magenkarzinoms
Assay: Cell viability dose-response of single FLOT components on in vitro cultured patient tumour cells (Presto Blue)
Format: cell-based
Description: Die Konzentration der mindestens einen Komponente der Testzusammensetzung kann auf Basis von empirisch ermittelten Werten festgelegt werden. Zur empirischen Bestimmung von geeigneten Komponentenkonzentrationen für die Testzusammensetzung werden zunächst Zellen eines ösophago-gastralen Karzinoms, insbesondere eines Magenkarzinoms, von mehreren Patienten entnommen und diese Zellen jeweils separat bei physiologischen Bedingungen in vitro kultiviert. Dabei kann die Patientenkultur auf mehrere Vertiefungen einer Zellkulturplatte aufgeteilt werden. Die kultivierten Patientenzellen werden anschließend jeweils mit einer der Komponenten in jeweils vorgegebenen Konzentrationen in Kontakt gebracht und inkubiert. Das heißt, die die Patientenkulturen werden mit den jeweiligen Komponentenkonzentrationen behandelt. Da sich für Leucovorin selbst keine Wirkung auf die Zellen nachweisen lässt, kann Leucovorin als Komponente zur Bestimmung der Komponentenkonzentration ausgenommen werden. Die Behandlung kann in zwei Vorgehensvarianten unterschieden werden. Gemäß einer ersten Variante erfolgt die Behandlung einer Patientenkultur mit den Komponentenkonzentrationen der betreffenden Komponente beginnend mit der niedrigsten Komponentenkonzentration, wobei die Komponentenkonzentration jeweils nach einer vorgegebenen Inkubationszeit schrittweise oder kontinuierlich erhöht wird. Die Zellviabilität wird dabei nach vorgegebenen Inkubationszeiten bestimmt. Gemäß einer zweiten Variante, werden Patientenzellen enthaltene Vertiefungen jeweils mit einer konkreten Konzentration der jeweiligen Komponente behandelt und inkubiert, wobei die Zellviabilitäten nach einer vorgegebenen Inkubationszeit bestimmt werden. Auf diese Weise können mehrere Komponentenkonzentrationen verschiedener Konzentrationen gleichzeitig getestet werden.
Für jede Komponente 5-Fluorouracil, Oxaliplatin und Docetaxel, kann eine patientenspezifische mittlere inhibitorische Konzentration IC50 (IC50F, IC50O, IC50T,) ermittelt werden. Die IC50-Werte geben an, ab welcher Konzentration der Komponenten eine halbmaximale Wachstumshemmung der Patientenzellen erreicht ist. Anschließend wird aus den Werten der ermittelten patientenspezifischen mittleren inhibitorischen Konzentrationen (IC50F, IC50O, IC50T) für jede Komponente (5-Fluorouracil, Oxaliplatin und Docetaxel, (F, O, T)) ein inhibitorischer Konzentrations-Mittelwert (mIC50F, mIC50O, mIC50T) bestimmt. Der inhibitorische Konzentrations-Mittelwert mIC50 ist der Mittelwert aus der Gesamtheit der IC50-Werte einer der Komponenten (F, O, T). […]

In the case of `O=c1[nH]cc(F)c(=O)[nH]1` [5-FU, 5-Fluorouracil], the IC50 (144 h, read-out: 5-FU-spezifische mittlere halbmaximale inhibitorische Konzentration mIC50F) is reported as 10.3 µM.
`CC(=O)O[C@@]12CO[C@@H]1C[C@H](O)[C@@]1(C)C(=O)[C@H](O)C3=C(C)[C@@H](OC(=O)[C@H](O)[C@@H](NC(=O)OC(C)(C)C)c4ccccc4)C[C@@](O)([C@@H](OC(=O)c4ccccc4)[C@H]21)C3(C)C` [Docetaxel] was tested, and the IC50 (cell cultures of 13 patients, same procedure as for 5-FU, read-out: Docetaxelspezifische mittlere halbmaximale inhibitorische Konzentration mIC50T) was 0.0012 µM.
For `Nc1nc2c(c(=O)[nH]1)N(C=O)C(CNc1ccc(C(=O)N[C@@H](CCC(=O)O)C(=O)O)cc1)CN2` (stereo partly shown) [Leucovorin], the “Effekt auf die Zellviabilität der Patientenkulturen” value (single-agent tests) was “keine Wirkung; also recorded: keinen Effekt”.
Work on `O=C1[O][Pt]2([NH][C@@H]3CCCC[C@H]3[NH]2)[O]C1=O` [Oxaliplatin] yielded an IC50 (cell cultures of 13 patients, same procedure as for 5-FU, read-out: Oxaliplatin-spezifische mittlere halbmaximale inhibitorische Konzentration mIC50O) of 10.7 µM.
